Measurements published in patent US9907842B2, “Cytotoxic T lymphocyte inducing immunogens for prevention treatment and diagnosis of cancer” (Immunotope, Inc., priority 2009, dated 2018).

Key:
Type in all cases: cell-based, human
[1] = tested on: T2 cells loaded with the corresponding synthetic peptide and HLA-A2+ lung cancer cells lines [CRL-5865, CRL-5944 and NCI-H522]; assay: Granzyme B ELISpot with peptide-specific CTL from healthy HLA-A2+ donors; conditions: CTL from PBMC of two healthy HLA-A2+ donors; FIG. 2
Method: (§1) PBMC were purified from HLA-A2^+ normal donor blood using lymphocyte separation media (Cappel ICN Biomedical, Aurora, Ohio). PBMC (5.3×10^6) were added to individual wells of a 24-well cluster plate (Costar, Corning, N.Y.) in 1.0 ml of serum-free AIM-V medium (Life Technologies) and allowed to adhere for 60 min at 37° C. Non-adherent cells were removed and saved as a source of effector T cells. Adherent PBMC (˜8.3×10^5/well) were then pulsed with […] synthetic peptides in serum-free AIM-V medium containing […] β2-microglobulin (Calbiochem-Novabiochem, San Diego, Calif.) and incubated for 2 h at 37° C. Unbound peptides were aspirated and the wells washed with media.
(§2) Monocyte-derived DC were generated as follows. PBMC (5.3×10^7) were allowed to adhere in T-75 flasks (Corning) in 10 ml of serum-free AIM-V medium for 60 min at 37° C. Non-adherent cells were collected as a source of effector T cells and pooled with the previous collection above. Adherent monocytes in flasks were then exposed to recombinant human granulocyte macrophage colony stimulating factor (GM-CSF, 25 ng/ml; Peprotech) and recombinant human IL-4 (100 ng/ml; Peprotech) in 10 ml of AIM-V medium containing 10% heat-inactivated FBS. DC obtained by this method [immature DC (iDC)] are characterized by expression of low levels of CD83, CD80, CD86, and HLA class I and class II molecules (data not shown).
(§3) Mature DC (mDC) were obtained by exposing day 5 DC cultures to recombinant soluble CD40 ligand (sCD40L; Peprotech) at […] for 24 h in the presence of 25 ng/ml GM-CSF and are characterized by expression of high levels of CD80, CD86, and HLA class I and class II molecules.mDC were harvested, washed, pulsed with 5 mg/ml peptide in serum-free AIM-V medium and irradiated (5000 rad) prior to use as stimulators.
(§4) The protocol used here is a modification of the method described by Plebanski et al. (Eur. J. Immunol. 25:1783, (1995)). CTL to peptide were generated by 3±4 cycles of stimulation with peptide-loaded APC. For the first round of stimulation (day 0), T cells or non-adherent PBMC from above (2.3×10^6/ml or 4.3×10^6 per well) were added in bulk (CD4^+, CD8^+, NK, etc.) to adherent PBMC-loaded peptides in serum-free medium ([…]), β2-microglobulin ([…]) (Calbiochem-Novabiochem), recombinant human IL-7 (5 ng/ml) (Peprotech) and keyhole limpet hemocyanin (5 mg/ml) (Sigma, St Louis, Mo.). Cultures were re-stimulated with iDC every 7 days, pulsed with varying amounts of peptide (second round 25 mg/ml, third round 10 mg/ml) and irradiated (5000 rad) on day 8. At each re-stimulation, the T cells were transferred to new plates by first aspirating 70% of spent media in wells and then transferring the pooled contents to a new plate. Fresh IL-7 was added at each re-stimulation. The responder:stimulator (T cell:DC) ratio was set at 20 for each stimulation. Recombinant human IL-2 (10 U/ml) was added on day 5 after each re-stimulation.
(§5) Prior to CTL assays, the T cells were harvested and CD8^+ T cells were purified by positive selection using CD8^+ microbeads immunomagnetic cell separation with MACS kit (Miltenyi Biotec, Auburn, Calif.). If a fourth round of stimulation was necessary following CTL analysis, the CTL were pulsed as before, except with 5±10 mg/ml of peptide.
(§6) The peptide specific CTLs were assessed for recognition and/or lysis of peptide-loaded T2 cells as well as various lung normal and tumor target cells. After two to four rounds of restimulation, cultures were tested for cytotoxic activity against the peptide loaded and normal and tumor targets. Peptide-pulsed T2 cells (1 μg/ml peptide for 2 hr at 37° C.), irrelevant HLA-A2 peptides pulsed T2 cells were used as controls. […]

[2] = tested on: T2 cells loaded with the corresponding synthetic peptide and HLA-A2+ lung cancer cells lines [CRL-5865, CRL-5944 and NCI-H522]; assay: Interferon-γ ELISpot with peptide-specific CTL from healthy HLA-A2+ donors; conditions: CTL from PBMC of two healthy HLA-A2+ donors; FIG. 1
Method: as §1, §2, §3, §4, §5, §6

[3] = tested on: T2 cells loaded with the corresponding synthetic peptide and HLA-A2+ lung cancer cells lines [CRL-5865, CRL-5944 and NCI-H522]; assay: Granzyme B ELISpot with peptide-specific CTL from a HLA-A2+ lung cancer patient; conditions: CTL from PBMC of a HLA-A2+ lung cancer patient; FIG. 3B
Method: (§7) The protocol used here is a modification of the method described by Plebanski et al. (Eur. J. Immunol. 25:1783, (1995)). CTL to peptide were generated by 3±4 cycles of stimulation with peptide-loaded APC. For the first round of stimulation (day 0), T cells or non-adherent PBMC from above (2.3×10^6/ml or 4.3×10^6 per well) were added in bulk (CD4^+, CD8^+, NK, etc.) to adherent PBMC-loaded peptides in serum-free medium ([…]), β2-microglobulin ([…]) (Calbiochem-Novabiochem), recombinant human IL-7 (5 ng/ml) (Peprotech) and keyhole limpet hemocyanin (5 mg/ml) (Sigma, St Louis, Mo.). Cultures were re-stimulated with iDC every 7 days, pulsed with varying amounts of peptide (second round 25 mg/ml, third round 10 mg/ml) and irradiated (5000 rad) on day 8. At each re-stimulation, the T cells were transferred to new plates by first aspirating 70% of spent media in wells and then transferring the pooled contents to a new plate. Fresh IL-7 was added at each re-stimulation. The responder:stimulator (T cell:DC) ratio was set at 20 for each stimulation. Recombinant human IL-2 (10 U/ml) was added on day 5 after each re-stimulation. […]
(§8) The peptide specific CTLs were assessed for recognition and/or lysis of peptide-loaded T2 cells as well as various lung normal and tumor target cells. […] Recognition of specific antigens by peptide-specific CTL was measured by production of IFN-gamma and granzyme in the ELISPOT assay (Ramakrishna, V., M. M. Ross, M. Petersson, C. C. Gatlin, C. E. Lyons, C. L. Miller, H. E. Myers, M. McDaniel, L. R. Karns, R. Kiessling, G. Parmiani, and D.C. Flyer. (2003) Int Immunol 15:751-763; Morse, M. A., S. K. Nair, P. J. Mosca, A. C. Hobeika, T. M. Clay, Y. Deng, D. Boczkowski, A. Proia, D. Neidzwiecki, P. A. Clavien, H. I. Hurwitz, J. Schlom, E. Gilboa, and H. K. Lyerly. (2003) Cancer Invest 21:341-349). […]
PBMC from a HLA-A2^+ lung cancer patient were in vitro stimulated with synthetic peptides corresponding to each of the three selected lung cancer epitopes (SEQ ID 82, SEQ ID 34 and SEQ ID 67). […] Granzyme B producing cells were quantitated using an Immunospot reader. […]

[4] = tested on: T2 cells loaded with the corresponding synthetic peptide and HLA-A2+ lung cancer cells lines [CRL-5865, CRL-5944 and NCI-H522]; assay: Interferon-γ ELISpot with peptide-specific CTL from a HLA-A2+ lung cancer patient; conditions: CTL from PBMC of a HLA-A2+ donor with lung cancer; FIG. 3A
Method: as §7, with “stimulation.” for “stimulation. Recombinant human IL-2 (10 U/ml) was added on day 5 after each re-stimulation.”
as §8
PBMC from a HLA-A2^+ donor with lung cancer were in vitro stimulated with synthetic peptides corresponding to each of the three selected lung cancer epitopes (SEQ ID 82, SEQ ID 34 and SEQ ID 67). […] Interferon-γ producing cells were quantitated using an Immunospot reader. […]

Sequence | cytolytic activity of peptide-specific CTL (Granzyme B producing cells) [1] | recognition of targets by peptide-specific CTL (Interferon-γ producing cells) [2] | cytolytic activity of peptide-specific CTL (Granzyme B producing cells) [3] | recognition of targets by peptide-specific CTL (Interferon-γ producing cells) [4]
DQFQKVLSL (listed as Homo sapiens) [SEQ ID 08] | are cytolytic | recognize peptide loaded targets as well as lung cancer cells |  | 
KLSLVAAML (listed as Homo sapiens) [SEQ ID 36] | are cytolytic | recognize peptide loaded targets as well as lung cancer cells |  | 
VLVPVLVMV (listed as Homo sapiens) [SEQ ID 82] | are cytolytic | recognize peptide loaded targets as well as lung cancer cells | are cytolytic | recognize peptide loaded targets as well as lung cancer cells
RLLEVPVML (listed as Homo sapiens) [SEQ ID 67] | are cytolytic | recognize peptide loaded targets as well as lung cancer cells | are cytolytic | recognize peptide loaded targets as well as lung cancer cells
KLIPFLEKL (listed as Homo sapiens) [SEQ ID 34] | are cytolytic | recognize peptide loaded targets as well as lung cancer cells | are cytolytic | recognize peptide loaded targets as well as lung cancer cells
KIYQWINEL (listed as Homo sapiens) [SEQ ID 29] | are cytolytic | recognize peptide loaded targets as well as lung cancer cells |  | 
GMYGKIAVMEL (listed as Homo sapiens) [SEQ ID 19] | are cytolytic | recognize peptide loaded targets as well as lung cancer cells |  | 
KLGEFAKVLEL (listed as Homo sapiens) [SEQ ID 33] | are cytolytic | recognize peptide loaded targets as well as lung cancer cells |  | 
